Assay results published in ChEMBL document CHEMBL1201862, “PubChem BioAssay data set” (2004).
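A five-concentration, 48-hour dose response in 96-well plates underlies each endpoint, interpolated linearly between surrounding concentrations. GI50 is the concentration that inhibits growth by half.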 Calls of active or inactive are those of the source. Cut-off read from the data, not from the text of the source: active = GI50 up to about 1.1 µM and inactive = higher.

What was measured:
Assay in all cases: NCI-60 cell line screen, 48 h
OVCAR-4 = tested on: OVCAR-4
ACHN = tested on: ACHN
A549 = tested on: A549
CCRF-CEM = tested on: CCRF-CEM
CAKI-1 = tested on: CAKI-1
RXF 393 = tested on: RXF 393
U-251 = tested on: U-251
Malme-3M = tested on: Malme-3M
LOX IMVI = tested on: LOX IMVI
HCC 2998 = tested on: HCC 2998
SK-OV-3 = tested on: SK-OV-3
SK-MEL-28 = tested on: SK-MEL-28
M14 = tested on: M14
NCI-H460 = tested on: NCI-H460
SN12C = tested on: SN12C
HCT-15 = tested on: HCT-15
SK-MEL-5 = tested on: SK-MEL-5
SNB-75 = tested on: SNB-75

Compound	GI50 (OVCAR-4)	GI50 (ACHN)	GI50 (A549)	GI50 (CCRF-CEM)	GI50 (CAKI-1)	GI50 (RXF 393)	GI50 (U-251)	GI50 (Malme-3M)	GI50 (LOX IMVI)	GI50 (HCC 2998)	GI50 (SK-OV-3)	GI50 (SK-MEL-28)	GI50 (M14)	GI50 (NCI-H460)	GI50 (SN12C)	GI50 (HCT-15)	GI50 (SK-MEL-5)	GI50 (SNB-75)
COc1cc(C=C2C(=O)OC(C)(C)OC2=O)cc(OC)c1OC	> 100 µM (inactive)	> 100 µM (inactive)	> 100 µM (inactive)	> 100 µM (inactive)	> 100 µM (inactive)	> 100 µM (inactive)	> 100 µM (inactive)	> 100 µM (inactive)	> 100 µM (inactive)	> 100 µM (inactive)	> 100 µM (inactive)	> 100 µM (inactive)	> 100 µM (inactive)	> 100 µM (inactive)	> 100 µM (inactive)	> 100 µM	> 100 µM (inactive)	
N#CC1CCCCCCCCCCC(=O)N(CCCl)C1=O (stereo not given)	> 100 µM (inactive)	> 100 µM (inactive)	> 100 µM (inactive)	> 100 µM (inactive)	> 100 µM (inactive)	> 100 µM (inactive)	> 100 µM (inactive)	> 100 µM (inactive)	> 100 µM (inactive)	> 100 µM (inactive)	> 100 µM (inactive)	> 100 µM (inactive)	> 100 µM (inactive)	> 100 µM (inactive)	> 100 µM (inactive)		> 100 µM (inactive)	> 100 µM (inactive)
Cc1ccc(Cl)c2c(=O)cc(-c3ccccc3)[nH]c12	55.3 µM (inactive)	42.3 µM (inactive)	46.3 µM (inactive)	52.7 µM (inactive)	84.9 µM (inactive)	29.2 µM (inactive)	88.5 µM (inactive)	51.6 µM (inactive)	39.7 µM (inactive)		> 100 µM (inactive)	> 100 µM (inactive)	43 µM (inactive)	36.2 µM (inactive)	56.4 µM (inactive)	46.2 µM	37.8 µM (inactive)	28.8 µM (inactive)
O=C(NC1C=CCC2C(=O)N(c3ccccc3)C(=O)C12)OCc1ccccc1 (stereo not given)	> 100 µM (inactive)	> 100 µM (inactive)	> 100 µM (inactive)	> 100 µM (inactive)	> 100 µM (inactive)	> 100 µM (inactive)	> 100 µM (inactive)		> 100 µM (inactive)	> 100 µM (inactive)	> 100 µM (inactive)	> 100 µM (inactive)	> 100 µM (inactive)	> 100 µM (inactive)	> 100 µM (inactive)		> 100 µM (inactive)	> 100 µM (inactive)
NC(=S)N1N=C2CCCCCC[C@@H]2[C@H]1c1ccccc1		41.9 µM (inactive)	24.4 µM (inactive)	31.3 µM (inactive)	> 100 µM (inactive)	95.9 µM (inactive)	46 µM (inactive)	59.3 µM (inactive)	32.8 µM (inactive)	79.4 µM (inactive)	> 100 µM (inactive)	89.7 µM (inactive)	74.5 µM (inactive)	35.2 µM (inactive)	86.1 µM (inactive)	28.4 µM	22.4 µM (inactive)	75.2 µM (inactive)
O=C1Nc2c(ccc(Cl)c2I)C1=O	16.9 µM (inactive)	15.6 µM (inactive)	34.9 µM (inactive)	20.2 µM (inactive)	16.4 µM (inactive)	17.4 µM (inactive)	25.5 µM (inactive)	15 µM (inactive)	19.1 µM (inactive)	19.6 µM (inactive)	18.5 µM (inactive)	18.4 µM (inactive)	15.7 µM (inactive)	17.9 µM (inactive)	17.1 µM (inactive)	18.9 µM	15.7 µM (inactive)	
O=C1C(Cl)=C(NCCOCCO)C(=O)c2c(O)ccc(O)c21	2.37 µM (inactive)	15.4 µM (inactive)	5.75 µM (inactive)		23.9 µM (inactive)	14.1 µM (inactive)	17 µM (inactive)	2.82 µM (inactive)	3.61 µM (inactive)		17.3 µM (inactive)		11.2 µM (inactive)	3.36 µM (inactive)	11 µM (inactive)	1.85 µM	1.96 µM (inactive)	17 µM (inactive)
CC1=C(C(=O)Nc2ccccc2C)C(c2ccco2)C(C(=O)Nc2ccccc2C)=C(C)N1C	> 100 µM (inactive)	> 100 µM (inactive)	> 100 µM (inactive)	50 µM (inactive)	> 100 µM (inactive)	> 100 µM (inactive)	> 100 µM (inactive)	> 100 µM (inactive)	> 100 µM (inactive)	> 100 µM (inactive)	> 100 µM (inactive)	> 100 µM (inactive)	> 100 µM (inactive)	> 100 µM (inactive)	> 100 µM (inactive)		> 100 µM (inactive)	
O=C(N/C(=C\c1cc(Cl)ccc1Cl)c1nc2cc(Cl)ccc2[nH]1)c1ccccc1	25.8 µM (inactive)	22.5 µM (inactive)	16.8 µM (inactive)	17 µM (inactive)	22 µM (inactive)	15.4 µM (inactive)	16.1 µM (inactive)	18.9 µM (inactive)	13.6 µM (inactive)	18.2 µM (inactive)	21.5 µM (inactive)	17.4 µM (inactive)	17.1 µM (inactive)	15.1 µM (inactive)	19.5 µM (inactive)	16.4 µM	13.2 µM (inactive)	19.1 µM (inactive)
CCc1cccc(C)c1NC(C)=O	> 100 µM (inactive)	> 100 µM (inactive)	> 100 µM (inactive)	> 100 µM (inactive)	> 100 µM (inactive)	> 100 µM (inactive)	> 100 µM (inactive)	> 100 µM (inactive)		> 100 µM (inactive)	> 100 µM (inactive)	> 100 µM (inactive)	> 100 µM (inactive)	> 100 µM (inactive)		> 100 µM	> 100 µM (inactive)	> 100 µM (inactive)
O=C(c1cccs1)N(C(=S)N1CCN(c2ccccn2)CC1)c1ccccc1	> 100 µM (inactive)	> 100 µM (inactive)	> 100 µM (inactive)	> 100 µM (inactive)	76 µM (inactive)	35 µM (inactive)	> 100 µM (inactive)	> 100 µM (inactive)	> 100 µM (inactive)		> 100 µM (inactive)	> 100 µM (inactive)	76.7 µM (inactive)	> 100 µM (inactive)	> 100 µM (inactive)	61 µM	41.6 µM (inactive)	> 100 µM (inactive)
COC(=O)[C@@]12OC[C@]34C([C@@H](O)C1O)[C@@]1(C)CC(=O)C(OC(=O)CC(C)C(F)(F)F)=C(C)C1C[C@H]3OC(=O)[C@H](O)[C@H]42 (stereo not given in full)	14.7 µM (inactive)	8.22 µM (inactive)	17.3 µM (inactive)	4.03 µM (inactive)	9.4 µM (inactive)	4.62 µM (inactive)	4.79 µM (inactive)	0.215 µM (active)		2 µM (inactive)	5.24 µM (inactive)	1.53 µM (inactive)	1.99 µM (inactive)	1.77 µM (inactive)	2 µM (inactive)	> 62.5 µM	1.63 µM (inactive)	2.11 µM (inactive)
